Reference: ChEMBL document CHEMBL1201862, “PubChem BioAssay data set” (2004)
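Cells were grown in 96-well plates and exposed to each compound for 48 hours at five concentrations; endpoints were interpolated linearly between bracketing concentrations, or set to the highest concentration if not reached. GI50 is the concentration that inhibits growth by half.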 Calls of active or inactive are those of the source. Cut-off read from the data, not from the text of the source: active = GI50 up to about 1.1 µM and inactive = higher.

Key:
Assay in all cases: DTP human tumour cell line panel, 48 h
MDA-MB-231 = test system: MDA-MB-231
NCI-H460 = test system: NCI-H460
A498 = test system: A498
TK-10 = test system: TK-10
ACHN = test system: ACHN
HT-29 = test system: HT-29
SF-539 = test system: SF-539
A549 = test system: A549
HCC 2998 = test system: HCC 2998
U-251 = test system: U-251
M14 = test system: M14
MCF7 = test system: MCF7
LOX IMVI = test system: LOX IMVI
OVCAR-5 = test system: OVCAR-5
SF-268 = test system: SF-268
KM12 = test system: KM12
UACC-62 = test system: UACC-62
HOP-92 = test system: HOP-92
SW-620 = test system: SW-620

Measured: GI50

O=c1oc2ccccc2c(-c2ccc(O)cc2)c1Oc1ccccc1
inactive: MDA-MB-231 3.17 µM | NCI-H460 6.85 µM | A498 7.71 µM | TK-10 8.05 µM | ACHN 10.2 µM | HT-29 > 52.1 µM | SF-539 20.7 µM | A549 22.1 µM | HCC 2998 7.21 µM | U-251 8.51 µM | M14 9.16 µM | MCF7 11.2 µM | LOX IMVI 9.93 µM | OVCAR-5 18.8 µM | SF-268 8.57 µM | KM12 23.6 µM | UACC-62 5.18 µM | HOP-92 10.2 µM | SW-620 37.8 µM

CS(=O)(=O)Nc1ccc2ccccc2c1
inactive: MDA-MB-231 > 100 µM | NCI-H460 > 100 µM | A498 > 100 µM | TK-10 > 100 µM | ACHN > 100 µM | HT-29 > 100 µM | SF-539 > 100 µM | A549 > 100 µM | HCC 2998 > 100 µM | U-251 > 100 µM | M14 > 100 µM | MCF7 > 100 µM | LOX IMVI > 100 µM | OVCAR-5 > 100 µM | SF-268 > 100 µM | KM12 > 100 µM | UACC-62 > 100 µM | HOP-92 87.7 µM | SW-620 > 100 µM

O=c1c2ccccc2c2ccccc2c(=O)n1Cc1ccc2c(c1)OCO2
inactive: MDA-MB-231 > 96.2 µM | NCI-H460 24.6 µM | A498 > 70.5 µM | TK-10 > 100 µM | ACHN 45.4 µM | HT-29 22.6 µM | SF-539 27.1 µM | A549 32.1 µM | HCC 2998 25.1 µM | U-251 > 62.2 µM | M14 26.9 µM | MCF7 38.9 µM | LOX IMVI 40 µM | OVCAR-5 34 µM | SF-268 59.7 µM | KM12 19.5 µM | UACC-62 21.6 µM | HOP-92 > 94.8 µM | SW-620 33.3 µM

CCC(C#N)NCc1ccc(CNC(C#N)CC)cc1 (stereo unspecified)
inactive: MDA-MB-231 > 100 µM | NCI-H460 > 100 µM | A498 > 100 µM | TK-10 > 100 µM | ACHN > 100 µM | HT-29 > 100 µM | SF-539 > 100 µM | A549 > 100 µM | HCC 2998 > 100 µM | U-251 > 100 µM | M14 > 100 µM | MCF7 > 100 µM | LOX IMVI > 100 µM | OVCAR-5 > 100 µM | SF-268 > 100 µM | KM12 > 100 µM | UACC-62 86.5 µM | HOP-92 > 100 µM | SW-620 > 100 µM
